Assays:
Experiment in all cases: -log10 GI50 (growth inhibition 50%) (-log10(M)); higher = more potent growth inhibition
[1] = system: ZR75B
Summary of the method: (§1)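 The reported figure is the negative logarithm of GI50, defined as the molar concentration that produces the set level of growth inhibition. The logarithm is base 10. It comes from a Gompertz curve fitted by nonlinear least squares to 72-hour luminescence data from breast cancer cell lines given nine doses in 1:5 serial dilution, in triplicate, with a time-zero plate as reference. A < qualifier marks values equal to the top dose.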

[2] = system: HCC1187
Summary of the method: as §1

[3] = system: BT20
Summary of the method: as §1

[4] = system: SKBR3
Summary of the method: as §1

[5] = system: LY2
Summary of the method: as §1

[6] = system: T47D_KBluc
Summary of the method: as §1

[7] = system: MX1
Summary of the method: as §1

[8] = system: HCC2185
Summary of the method: as §1

[9] = system: 184B5
Summary of the method: as §1

[10] = system: SUM229PE
Summary of the method: as §1

[11] = system: MDAMB415
Summary of the method: as §1

[12] = system: HCC1569
Summary of the method: as §1

[13] = system: MDAMB157
Summary of the method: as §1

[14] = system: MCF10F
Summary of the method: as §1

[15] = system: HCC70
Summary of the method: as §1

[16] = system: UACC812
Summary of the method: as §1

[17] = system: HCC1143
Summary of the method: as §1

[18] = system: SUM225CWN
Summary of the method: as §1

[19] = system: BT549
Summary of the method: as §1

[20] = system: MDAMB453
Summary of the method: as §1

[21] = system: SUM159PT
Summary of the method: as §1

[22] = system: CAMA1
Summary of the method: as §1

[23] = system: BT483
Summary of the method: as §1

[24] = system: SUM185PE
Summary of the method: as §1

[25] = system: T47D
Summary of the method: as §1

[26] = system: 600MPE
Summary of the method: as §1

[27] = system: HCC1419
Summary of the method: as §1

[28] = system: AU565
Summary of the method: as §1

[29] = system: SUM1315MO2
Summary of the method: as §1

[30] = system: SUM149PT
Summary of the method: as §1

[31] = system: HCC1395
Summary of the method: as §1

[32] = system: SUM52PE
Summary of the method: as §1

[33] = system: HCC38
Summary of the method: as §1

[34] = system: HCC3153
Summary of the method: as §1

[35] = system: ZR751
Summary of the method: as §1

[36] = system: HCC1937
Summary of the method: as §1

[37] = system: HCC1806
Summary of the method: as §1

[38] = system: MDAMB134VI
Summary of the method: as §1

[39] = system: MCF12A
Summary of the method: as §1

[40] = system: MCF10A
Summary of the method: as §1

[41] = system: MDAMB175VII
Summary of the method: as §1

[42] = system: BT474
Summary of the method: as §1

[43] = system: MDAMB361
Summary of the method: as §1

[44] = system: HS578T
Summary of the method: as §1

[45] = system: HCC1428
Summary of the method: as §1

[46] = system: HCC1954
Summary of the method: as §1

[47] = system: 184A1
Summary of the method: as §1

[48] = system: MCF7
Summary of the method: as §1

[49] = system: MDAMB231
Summary of the method: as §1

CC(C(C)N1CC(=O)NC(=O)C1)N1CC(=O)NC(=O)C1 (configuration not stated) [ICRF-193]
-log10 GI50 [1]: 6.6 | -log10 GI50 [2]: 6.1 | -log10 GI50 [3]: < 4.3 | -log10 GI50 [4]: 5.22 | -log10 GI50 [5]: 5.97 | -log10 GI50 [6]: < 4.48 | -log10 GI50 [7]: 5.95 | -log10 GI50 [8]: 5.71 | -log10 GI50 [9]: < 4.48 | -log10 GI50 [10]: 6.14 | -log10 GI50 [11]: 5.39 | -log10 GI50 [12]: < 4.3 | -log10 GI50 [13]: 5.16 | -log10 GI50 [14]: < 4.3 | -log10 GI50 [15]: < 4.3 | -log10 GI50 [16]: < 4.48 | -log10 GI50 [17]: < 4.3 | -log10 GI50 [18]: < 4.48 | -log10 GI50 [19]: < 4.3 | -log10 GI50 [20]: 4.88 | -log10 GI50 [21]: 6.53 | -log10 GI50 [22]: < 4.3 | -log10 GI50 [23]: < 4.3 | -log10 GI50 [24]: < 4.3 | -log10 GI50 [25]: < 4.48 | -log10 GI50 [26]: < 4.3 | -log10 GI50 [27]: < 4.3 | -log10 GI50 [28]: 6.14 | -log10 GI50 [29]: 6.35 | -log10 GI50 [30]: 5.59 | -log10 GI50 [31]: 4.69 | -log10 GI50 [32]: 5.6 | -log10 GI50 [33]: 6.53 | -log10 GI50 [34]: < 4.48 | -log10 GI50 [35]: 6.07 | -log10 GI50 [36]: < 4.3 | -log10 GI50 [37]: < 4.3 | -log10 GI50 [38]: 4.32 | -log10 GI50 [39]: 6.71 | -log10 GI50 [40]: 7.07 | -log10 GI50 [41]: < 4.3 | -log10 GI50 [42]: < 4.3 | -log10 GI50 [43]: 4.39 | -log10 GI50 [44]: 5.63 | -log10 GI50 [45]: < 4.3 | -log10 GI50 [46]: 4.82 | -log10 GI50 [47]: < 4.3 | -log10 GI50 [48]: < 4.48

CO[C@H]1C[C@@H]2CC[C@@H](C)[C@@](O)(O2)C(=O)C(=O)N2CCCC[C@H]2C(=O)O[C@H]([C@H](C)C[C@@H]2CC[C@@H](OC(=O)C(C)(CO)CO)[C@H](OC)C2)CC(=O)[C@H](C)/C=C(\C)[C@@H](O)[C@@H](OC)C(=O)[C@H](C)C[C@H](C)/C=C/C=C/C=C/1C [Temsirolimus]
-log10 GI50 [1]: 6.97 | -log10 GI50 [2]: 6.1 | -log10 GI50 [3]: 6.18 | -log10 GI50 [4]: 7.27 | -log10 GI50 [5]: 6.85 | -log10 GI50 [6]: 4.56 | -log10 GI50 [7]: 5.45 | -log10 GI50 [8]: 8.19 | -log10 GI50 [9]: 5.29 | -log10 GI50 [10]: 4.87 | -log10 GI50 [11]: 8.36 | -log10 GI50 [12]: 5.49 | -log10 GI50 [13]: 4.63 | -log10 GI50 [14]: 6.11 | -log10 GI50 [15]: 6.49 | -log10 GI50 [16]: 6.21 | -log10 GI50 [17]: 5.8 | -log10 GI50 [18]: 5.6 | -log10 GI50 [19]: 6.61 | -log10 GI50 [23]: 6.57 | -log10 GI50 [24]: < 3.88 | -log10 GI50 [25]: 5.85 | -log10 GI50 [26]: 4.74 | -log10 GI50 [27]: 7.27 | -log10 GI50 [29]: 6.06 | -log10 GI50 [30]: 5.21 | -log10 GI50 [31]: 4.83 | -log10 GI50 [32]: 8.82 | -log10 GI50 [33]: 4.91 | -log10 GI50 [34]: 4.63 | -log10 GI50 [35]: < 3.88 | -log10 GI50 [36]: 6.36 | -log10 GI50 [37]: 4.69 | -log10 GI50 [38]: 6.89 | -log10 GI50 [39]: 5.03 | -log10 GI50 [40]: 6.38 | -log10 GI50 [41]: 4.66 | -log10 GI50 [42]: 7.57 | -log10 GI50 [43]: 6.56 | -log10 GI50 [44]: 4.66 | -log10 GI50 [45]: 5.25 | -log10 GI50 [46]: 6.66 | -log10 GI50 [47]: 6.3 | -log10 GI50 [48]: 5.8

Cc1cc(Nc2cc(N3CCN(C)CC3)nc(Sc3ccc(NC(=O)C4CC4)cc3)n2)n[nH]1 [VX-680]
-log10 GI50 [1]: 6.79 | -log10 GI50 [2]: 6.89 | -log10 GI50 [3]: 5.34 | -log10 GI50 [4]: < 4.48 | -log10 GI50 [5]: 5.21 | -log10 GI50 [6]: 4.49 | -log10 GI50 [7]: 6.81 | -log10 GI50 [8]: 6.48 | -log10 GI50 [9]: 5.74 | -log10 GI50 [10]: 6.47 | -log10 GI50 [11]: 5.58 | -log10 GI50 [12]: 5.68 | -log10 GI50 [13]: 5.43 | -log10 GI50 [14]: 4.99 | -log10 GI50 [15]: 5.6 | -log10 GI50 [16]: 4.79 | -log10 GI50 [17]: 6 | -log10 GI50 [18]: 4.76 | -log10 GI50 [19]: 5.75 | -log10 GI50 [20]: 5.03 | -log10 GI50 [21]: 6.47 | -log10 GI50 [22]: 4.53 | -log10 GI50 [23]: 5.44 | -log10 GI50 [24]: 5.62 | -log10 GI50 [25]: 5.03 | -log10 GI50 [26]: 5.06 | -log10 GI50 [27]: 4.81 | -log10 GI50 [28]: 5.66 | -log10 GI50 [29]: 5.8 | -log10 GI50 [30]: 5.07 | -log10 GI50 [31]: 5.21 | -log10 GI50 [32]: 6.42 | -log10 GI50 [33]: 6.74 | -log10 GI50 [49]: 4.95 | -log10 GI50 [34]: 4.72 | -log10 GI50 [35]: 5.29 | -log10 GI50 [36]: 5.1 | -log10 GI50 [37]: 4.76 | -log10 GI50 [38]: 6.03 | -log10 GI50 [39]: 6.33 | -log10 GI50 [40]: 6.04 | -log10 GI50 [41]: 4.72 | -log10 GI50 [42]: 4.84 | -log10 GI50 [43]: 5.1 | -log10 GI50 [44]: 6.57 | -log10 GI50 [45]: 5.11 | -log10 GI50 [46]: 5.32 | -log10 GI50 [47]: 5.64 | -log10 GI50 [48]: 5.08

Cc1cc(C(=O)N2CCN(c3cccc(Cl)c3)CC2)n(-c2ccccc2)n1 [XRP44X]
-log10 GI50 [1]: 5.9 | -log10 GI50 [2]: 6.05 | -log10 GI50 [3]: 5.29 | -log10 GI50 [5]: 6.08 | -log10 GI50 [7]: 6.04 | -log10 GI50 [8]: 6.31 | -log10 GI50 [9]: 6.55 | -log10 GI50 [10]: 6.6 | -log10 GI50 [11]: 6.2 | -log10 GI50 [12]: 4.6 | -log10 GI50 [13]: 5.95 | -log10 GI50 [14]: < 3.88 | -log10 GI50 [15]: 5.97 | -log10 GI50 [16]: 6.15 | -log10 GI50 [17]: 5.69 | -log10 GI50 [18]: 5.5 | -log10 GI50 [19]: 5.83 | -log10 GI50 [20]: 6.01 | -log10 GI50 [21]: 6.21 | -log10 GI50 [22]: 6.01 | -log10 GI50 [23]: 5.23 | -log10 GI50 [25]: 5.41 | -log10 GI50 [26]: < 3.88 | -log10 GI50 [27]: < 3.88 | -log10 GI50 [28]: 6.35 | -log10 GI50 [29]: 6.14 | -log10 GI50 [30]: 5.88 | -log10 GI50 [31]: 6.03 | -log10 GI50 [32]: 6.06 | -log10 GI50 [33]: 5.77 | -log10 GI50 [49]: 5.98 | -log10 GI50 [34]: 5.74 | -log10 GI50 [35]: 5.91 | -log10 GI50 [36]: < 3.88 | -log10 GI50 [37]: 5.97 | -log10 GI50 [38]: 6.09 | -log10 GI50 [39]: 6.67 | -log10 GI50 [40]: 6.55 | -log10 GI50 [41]: 5.44 | -log10 GI50 [42]: 4.61 | -log10 GI50 [43]: 6 | -log10 GI50 [44]: 6 | -log10 GI50 [45]: 5.85 | -log10 GI50 [46]: 6.3 | -log10 GI50 [47]: 6.5 | -log10 GI50 [48]: 6.4

— the supplement of paper PMC3937590
